In patent US20240261398A1 (priority 2018, published 2024):

Experiments:
[1] = tested on: influenza virus; assay type: in vivo, mice; settings: nasal immunization with vaccine + compound, 100 μg/dose (saponin 10 μg/dose), Day 0, 14, 28
[2] = tested on: A/California/07/2009 virus (H1N1; CA07); design: species or system BALB/c mice; settings: mouse, in vivo; hydrate
[3] = tested on: A/California/07/2009 virus (H1N1; CA07); design: species or system BALB/c mice; settings: mouse, in vivo; hydrate; remark: listed apart in the source

`C[C@@H]1O[C@@H](OC[C@H]2O[C@@H](Oc3c(-c4ccc(O)c(O)c4)oc4cc(O)cc(O)c4c3=O)[C@H](O)[C@@H](O)[C@@H]2O)[C@H](O)[C@H](O)[C@H]1O` [Rutin hydrate] was tested, and the “Antibody titers (IgG)” value [1] was 280, the “Antibody titers in secondary screening, Vaccine + compound” value [2] was 720 and the “Antibody titers in primary screening, Vaccine + compound” value [3] was 1280.00.
